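Grown in 96-well plates, cells were treated for 48 hours with each compound at five concentrations. Insufficient inhibition: endpoint recorded as highest concentration tested. Here, GI50 denotes the concentration required for 50% inhibition of growth.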 Active and inactive are the calls of the source. No stated cut-off is given here; in the data, active = GI50 up to about 1.1 µM and inactive = higher.
Legend:
Experiment in all cases: NCI tumour cell line growth inhibition, 48 h
HOP-92 = system: HOP-92
HOP-18 = system: HOP-18
XF498 = system: XF498
NCI-H522 = system: NCI-H522
A549 = system: A549
DLD-1 = system: DLD-1
A498 = system: A498
KM-20L2 = system: KM-20L2
SN12C = system: SN12C
K562 = system: K562
NCI-H226 = system: NCI-H226
MOLT-4 = system: MOLT-4
Malme-3M = system: Malme-3M
SK-OV-3 = system: SK-OV-3
U-251 = system: U-251
M19-MEL = system: M19-MEL
LXFL 529 = system: LXFL 529
BT-549 = system: BT-549
MDA-MB-231 = system: MDA-MB-231
PC-3 = system: PC-3

| Structure (SMILES) | GI50 (HOP-92) | GI50 (HOP-18) | GI50 (XF498) | GI50 (NCI-H522) | GI50 (A549) | GI50 (DLD-1) | GI50 (A498) | GI50 (KM-20L2) | GI50 (SN12C) | GI50 (K562) | GI50 (NCI-H226) | GI50 (MOLT-4) | GI50 (Malme-3M) | GI50 (SK-OV-3) | GI50 (U-251) | GI50 (M19-MEL) | GI50 (LXFL 529) | GI50 (BT-549) | GI50 (MDA-MB-231) | GI50 (PC-3) |
| --- | --- | --- | --- | --- | --- | --- | --- | --- | --- | --- | --- | --- | --- | --- | --- | --- | --- | --- | --- | --- |
| Cc1ccc(S(=O)(=O)Oc2cc(-c3ccccc3)nc3ccccc23)cc1 | 3.83 µM (inactive) | 7.62 µM (inactive) | 3.91 µM (inactive) | 1.13 µM (inactive) | 3.15 µM (inactive) | 2.49 µM (inactive) | 2.36 µM (inactive) | 1.57 µM (inactive) | 5.93 µM (inactive) | 0.869 µM (active) | 6.4 µM (inactive) | 3.63 µM (inactive) | 1.58 µM (inactive) | 2.23 µM (inactive) | 2.51 µM (inactive) | 3.3 µM (inactive) | – | – | – | – |
| O=c1cc(-c2ccc(Cl)cc2)oc2cc(OCCCOc3ccc4c(=O)cc(-c5ccc(Cl)cc5)oc4c3)ccc12 | > 100 µM (inactive) | > 100 µM (inactive) | > 100 µM (inactive) | > 100 µM (inactive) | > 100 µM (inactive) | > 100 µM (inactive) | – | > 100 µM (inactive) | > 100 µM (inactive) | > 100 µM (inactive) | > 100 µM (inactive) | > 100 µM (inactive) | > 100 µM (inactive) | > 100 µM (inactive) | > 100 µM (inactive) | > 100 µM (inactive) | > 100 µM (inactive) | – | – | – |
| CC1=C(O)C(=O)c2cn(C)cc2C1=O | > 100 µM (inactive) | > 100 µM (inactive) | > 100 µM (inactive) | – | > 100 µM (inactive) | > 100 µM (inactive) | > 100 µM (inactive) | > 100 µM (inactive) | > 100 µM (inactive) | > 100 µM (inactive) | > 100 µM (inactive) | > 100 µM (inactive) | > 100 µM (inactive) | > 100 µM (inactive) | > 100 µM (inactive) | > 100 µM (inactive) | > 100 µM (inactive) | – | – | – |
| COc1ccc2c(c1)CCc1c(CO)c(COC(=O)NC(C)C)n(C)c1-2 | 4.01 µM (inactive) | 1.55 µM (inactive) | 7.83 µM (inactive) | 3.44 µM (inactive) | 6.53 µM (inactive) | 4.72 µM (inactive) | 9.29 µM (inactive) | 6.59 µM (inactive) | 8.93 µM (inactive) | 2.41 µM (inactive) | 2.68 µM (inactive) | 2.68 µM (inactive) | 4.15 µM (inactive) | 18.3 µM (inactive) | 5.41 µM (inactive) | 3.7 µM (inactive) | 3.21 µM (inactive) | – | – | – |
| CNc1ccc2ncccc2c1[N+](=O)[O-] | > 100 µM (inactive) | > 100 µM (inactive) | > 100 µM (inactive) | – | > 100 µM (inactive) | > 100 µM (inactive) | > 100 µM (inactive) | > 100 µM (inactive) | > 100 µM (inactive) | > 100 µM (inactive) | > 100 µM (inactive) | > 100 µM (inactive) | > 100 µM (inactive) | – | – | > 100 µM (inactive) | > 100 µM (inactive) | – | – | – |
| Nc1ccn(CC(CO)CC(c2ccccc2)P(=O)(O)O)c(=O)n1 (stereo not given) | > 100 µM (inactive) | < 0.01 µM (active) | > 100 µM (inactive) | > 100 µM (inactive) | > 100 µM (inactive) | > 100 µM (inactive) | > 100 µM (inactive) | > 100 µM (inactive) | > 100 µM (inactive) | > 100 µM (inactive) | > 100 µM (inactive) | > 100 µM (inactive) | > 100 µM (inactive) | > 100 µM (inactive) | – | > 100 µM (inactive) | > 100 µM (inactive) | – | – | – |
| Cc1cn([C@@H]2C[C@H](CO)[C@@H](O)C2)c(=O)[nH]c1=O | > 100 µM (inactive) | > 100 µM (inactive) | > 100 µM (inactive) | > 100 µM (inactive) | > 100 µM (inactive) | > 100 µM (inactive) | – | > 100 µM (inactive) | > 100 µM (inactive) | > 100 µM (inactive) | > 100 µM (inactive) | > 100 µM (inactive) | > 100 µM (inactive) | > 100 µM (inactive) | > 100 µM (inactive) | > 100 µM (inactive) | > 100 µM (inactive) | – | – | – |
| Nc1ncn([C@H]2C[C@H](O)[C@@H](CO)O2)c(=O)n1 [DECITABINE] | 175 µM (inactive) | > 99.1 µM (inactive) | 25.5 µM (inactive) | 36.7 µM (inactive) | 21.4 µM (inactive) | 3.09 µM (inactive) | 135 µM (inactive) | > 375 µM (inactive) | 83.8 µM (inactive) | 18.7 µM (inactive) | 68.7 µM (inactive) | 11.6 µM (inactive) | 127 µM (inactive) | 76.2 µM (inactive) | 102 µM (inactive) | 5.86 µM (inactive) | – | 13.6 µM (inactive) | 17.8 µM (inactive) | 9.57 µM (inactive) |

— ChEMBL document CHEMBL1201862, “PubChem BioAssay data set” (2004)
